Data as given in ChEMBL document CHEMBL1649223, “Efficacy of albaconazole against Candida albicans in a vaginitis model” (2009).
In brackets after ≈: the same amount, converted by molar mass.

Tests used:
Assay type in all cases: functional
Candida albicans [1] = experiment: Antifungal activity against Candida albicans isolate 03-2718 infected BALB/c mouse vaginitis model assessed as reduction in fungal load in vagina at 20 mg/kg, administered through oral gavage once daily for 5 days measured on day 6 post inoculation
Candida albicans [2] = experiment: Antifungal activity against Candida albicans isolate 03-2718 infected BALB/c mouse vaginitis model assessed as reduction in fungal load in vagina at 20 mg/kg, administered through oral gavage twice daily for 5 days measured on day 6 post inoculation
Candida albicans [3] = experiment: Antifungal activity against Candida albicans isolate 03-2718 infected BALB/c mouse vaginitis model assessed as reduction in fungal load in vagina at 20 mg/kg, administered through oral gavage twice daily for 5 days measured on day 1 post inoculation
Candida albicans [4] = experiment: Antifungal activity against Candida albicans isolate 03-2718 infected BALB/c mouse vaginitis model assessed as reduction in fungal load in vagina at 20 mg/kg, administered through oral gavage once daily for 5 days measured on day 1 post inoculation
Candida albicans [5] = experiment: Antifungal activity against Candida albicans isolate 03-2718 infected BALB/c mouse vaginitis model assessed as reduction in fungal load in vagina at 5 mg/kg, administered through oral gavage twice daily for 5 days measured on day 1 post inoculation
Candida albicans [6] = experiment: Antifungal activity against Candida albicans isolate 03-2718 infected BALB/c mouse vaginitis model assessed as reduction in fungal load in vagina at 40 mg/kg, administered through oral gavage twice daily for 5 days measured on day 6 post inoculation
Candida albicans [7] = experiment: Antifungal activity against Candida albicans isolate 03-2718 infected BALB/c mouse vaginitis model assessed as reduction in fungal load in vagina at 5 mg/kg, administered through oral gavage once daily for 5 days measured on day 1 post inoculation
Candida albicans [8] = experiment: Antifungal activity against Candida albicans isolate 03-2718 infected BALB/c mouse vaginitis model assessed as reduction in fungal load in vagina at 10 mg/kg, administered through oral gavage twice daily for 5 days measured on day 1 post inoculation
Candida albicans [9] = experiment: Antifungal activity against Candida albicans isolate 03-2718 infected BALB/c mouse vaginitis model assessed as reduction in fungal load in vagina at 40 mg/kg, administered through oral gavage twice daily for 5 days measured on day 1 post inoculation
Candida albicans [10] = experiment: Antifungal activity against Candida albicans isolate 03-2718 infected BALB/c mouse vaginitis model assessed as reduction in fungal load in vagina at 10 mg/kg, administered through oral gavage once daily for 5 days measured on day 6 post inoculation
Candida albicans [11] = experiment: Antifungal activity against Candida albicans isolate 03-2718 infected BALB/c mouse vaginitis model assessed as reduction in fungal load in vagina at 40 mg/kg, administered through oral gavage once daily for 5 days measured on day 6 post inoculation
Candida albicans [12] = experiment: Antifungal activity against Candida albicans isolate 03-2718 infected BALB/c mouse vaginitis model assessed as reduction in fungal load in vagina at 40 mg/kg, administered through oral gavage once daily for 5 days measured on day 1 post inoculation
Candida albicans [13] = experiment: Antifungal activity against Candida albicans isolate 03-2718 after 48 hrs; settings: isolate 03-2718, 48 h
Candida albicans [14] = experiment: Antifungal activity against Candida albicans isolate 03-2718 infected BALB/c mouse vaginitis model assessed as reduction in fungal load in vagina at 5 mg/kg, administered through oral gavage once daily for 5 days measured on day 6 post inoculation
Candida albicans [15] = experiment: Antifungal activity against Candida albicans isolate 03-2718 infected BALB/c mouse vaginitis model assessed as reduction in fungal load in vagina at 10 mg/kg, administered through oral gavage once daily for 5 days measured on day 1 post inoculation
Candida albicans [16] = experiment: Antifungal activity against Candida albicans isolate 03-2718 infected BALB/c mouse vaginitis model assessed as reduction in fungal load in vagina at 10 mg/kg, administered through oral gavage twice daily for 5 days measured on day 6 post inoculation
Candida albicans [17] = experiment: Antifungal activity against Candida albicans isolate 03-2718 infected BALB/c mouse vaginitis model assessed as reduction in fungal load in vagina at 5 mg/kg, administered through oral gavage twice daily for 5 days measured on day 6 post inoculation

| SMILES | log10cfu (Candida albicans [1]) | log10cfu (Candida albicans [2]) | log10cfu (Candida albicans [3]) | log10cfu (Candida albicans [4]) | log10cfu (Candida albicans [5]) | log10cfu (Candida albicans [6]) | log10cfu (Candida albicans [7]) | log10cfu (Candida albicans [8]) | log10cfu (Candida albicans [9]) | log10cfu (Candida albicans [10]) | log10cfu (Candida albicans [11]) | log10cfu (Candida albicans [12]) | MIC (Candida albicans [13]) | log10cfu (Candida albicans [14]) | log10cfu (Candida albicans [15]) | log10cfu (Candida albicans [16]) | log10cfu (Candida albicans [17]) |
| --- | --- | --- | --- | --- | --- | --- | --- | --- | --- | --- | --- | --- | --- | --- | --- | --- | --- |
| OC(Cn1cncn1)(Cn1cncn1)c1ccc(F)cc1F [FLUCONAZOLE] | 4.51 | 3.74 | 5.9 | 5.51 |  |  |  |  |  |  |  |  |  |  |  |  |  |
| C[C@@H](n1cnc2cc(Cl)ccc2c1=O)[C@](O)(Cn1cncn1)c1ccc(F)cc1F [ALBACONAZOLE] | 3.81 | 3.34 | 5.48 | 5.13 | 5.46 | 2.24 | 5.06 | 5.43 | 5.79 | 4.33 | 3.13 | 5.62 | 0.5 µg/mL (≈ 1.16 µM) | 4.99 | 5.07 | 3.83 | 4.82 |
